Patent publication US20100255099A1, “CLAVULANATE FORMULATION FOR NEUROPROTECTION AND TREATMENT OF NEURODEGENERATIVE DISORDERS” (REXAHN PHARMACEUTICALS, INC., priority 2007, published 2010)
“Also recorded” adds a separate entry of the source. Where two headings read alike, the source gives them in different places.

What was measured:
[1] = Stability of clavulanate during moisture removal after wet granulation; assay type: physicochemical
Description: Potassium clavulanate is an exceptionally difficult material to formulate, being extremely moisture and heat sensitive. Degradation readily occurs in the presence of water and aqueous media. Several methods were tested to find a suitable condition for removing moisture after wet granulation that keeps the active ingredient clavulanate intact. The material in sample C was prepared by wet granulation and spheronized. The moisture containing spheronized formulation was transferred to trays and subjected to different storage conditions for the removal of moisture.
Lyophilization retained 97% of the active ingredient after 21 hrs of the freeze drying process.

[2] = tested on: TH-positive neurons in the substantia nigra pars compacta (SNpc); assay: Tyrosine hydroxylase immunohistochemistry in MPTP model; assay type: in vivo, C57BL/6 mice; settings: for TH-positive (TH-IR) neurons within the SNpc: clavulanate treated groups (ip and ga) compared to MPTP-saline group
Description: The neuroprotectant effects of clavulanate was tested in an MPTP (1-methyl-4-phenyl-1,2,3,6-tetrahydropyridine) induced Parkinson's disease animal model. Eight week old male C57BL/6 mice were separated into six groups of ten. Three times (one time per day) prior to MPTP treatment, ten animals were treated with clavulanate at a particular dose and route of administration (Groups 2-5) while the remaining animals (groups 1 and 6) were given saline vehicle. (See Table 13.) MPTP was given four times intraperitoneally at a dose of 20 mg/kg (total of 80 mg/kg). Two times (one time per day) post MPTP treatment, animals were given another administration of clavulanate or saline vehicle. Animals were tested for changes in behavior. Animals that survived MPTP treatment were sacrificed 7 days later and their brains examined for histological changes in the substantia nigra pars compacta (SNpc). Ten untreated control animals of the same weight and age as the experimental animals were sacrificed and their hippocampal morphology used as a standard for comparison.
(§1) On completion of the experiment, animals were anesthetized by IP injection of 10 mg/kg pentobarbital sodium, then perfused transcardially with 10 ml of PBS at pH 7.4, follow by 50 ml of 4% paraformaldehyde in PBS over a 5 min period. The brains were removed from the skull and post-fixed by immersion in the same fixative solution for 4 h, then transferred to 30% sucrose in PBS. After equilibration in the sucrose solution, coronal sections were cut using the cryocut at a thickness of 40 μm into storing solution and stored at 4° C. prior to staining.
Immunohistochemistry was carried out on free floating sections. All stains were carried out on a 1 in 5 series of sections. All sections were stained simultaneously using the same solutions of antibodies and ensuring that incubation times and washes were the same for each brain. […]
Neurons were counted using the optical fractionator, an unbiased method for cell counting that is not affected by either the volume of reference or the size of the counted elements (neurons). […]

Kainate animal model = assay: Kainate animal model: seizure and survival; assay type: in vivo, Sprague Dawley rats
Description: (§2) As a neuroprotectant, clavulanate was tested in the Kainate animal model. Thirty male Sprague Dawley rats weighing 300-350 grams were separated into three groups. One hour prior to kainate treatment, seven animals are treated with clavulanate at an IP dose of 10 μg/kg while the remaining animals were given saline vehicle. Kainate was given IP at a dose of 20 mg/kg to the seven clavulanate treated animals and 13 saline vehicle treated animals. […] Sixty minutes post kainate treatment the animals were given another IP injection (10 μg/kg) of clavulanate or saline vehicle. Animals that survived kainate treatment were sacrificed seven days later and their brains examined for histological changes in the hippocampus. Ten untreated control animals of the same weight and age as the experimental animals were sacrificed and their hippocampal morphology used as a standard for comparison.

[3] = tested on: cresyl violet positive neurons in the hippocampal CA3 region; assay: Kainate animal model: cresyl violet staining of hippocampus; assay type: in vivo, Sprague Dawley rats
Description: as §2
as §1, with “with 100” for “with 10”, “by 250” for “by 50”, “staining. All stains are carried out on a 1 in 5 series of sections. […]” for “staining.”
To evaluate the effects of clavulanate against kainate induced neuronal damage, the measurement of neuronal number was performed using an image analyzing system equipped with a computer-based CCD camera (Multiscan, Fullerton, Calif.). The number of cresyl violet positive neurons was counted in a 1 mm diameter of hippocampus in five sections per animal. […] Data are expressed as the mean±SEM. The data were evaluated by a one-way ANOVA SPSS program and the means assessed using Duncan's multiple-range test. […]

[4] = administered i.p. at less than 1 μg/kg; cited from earlier work
[5] = rats, i.p. dose of 1 μg/kg; cited from earlier work
[6] = doses ranging from 10 ng to 10 μg/kg (i.p.); cited from earlier work
[7] = Moisture sorption of potassium clavulanate powder at different relative humidity; assay type: physicochemical; settings: for Moisture Content (%) (g H2O/g dry solid) / Moisture Content (%) (g H2O/g wet solid): 96 hr
Description: Potassium clavulanate in its solid form is both hygroscopic and unstable in the presence of water vapor. A stability study of clavulanate was conducted with monitoring by chromatographic methods. The static or equilibrium approach was approached by storing samples in chambers at different relative humidity in an attempt to generate a sorption isotherm. The sorption isotherm represents the quantitative relationship between the equilibrium moisture content and relative humidity (RH) in the atmosphere.

[8] = Pharmacokinetic study in beagle dogs; assay type: in vivo; settings: dog, plasma; for Vd: iv, 4.2 mg
Description: The amount of clavulanate in the plasma of beagle dogs was measured by LC/MS/MS method. The chromatographic separation of the analytes was performed on a reverse-phase PLRP-S polymeric column. The retention time of potassium clavulanate and tazobactam (reference compound) were 8.51 and 8.54 min, respectively. The overall chromatographic run time was 25 min. The M/S analysis was performed on an Applied Biosystems' API 2000 triple-quardrupole mass spectrometer by multiple reaction monitoring in negative electrospray ionization mode. The mass spectral data were analyzed by Analyst 1.4.1 (Applied Biosystems). The pharmacokinetic analysis was conducted by using PK Solutions 2.0 (Summit Research Services).
Three male Beagle dogs were used throughout the study in a cross-over design with washout period between treatments. […] The animals were fasted overnight before the administration of the test substance and fed 4 hr post-dosing. During all the treatments, blood samples (1.5 ml) were withdrawn from the cephalic vein by venipuncture into heparinized tubes at 0, 5, 15, 30 min, 1, 1.5, 2, 2.5, 3, 4, 6, 9 and 12 hr after dosing. Plasma was obtained via centrifugation at 3,000 rpm for 10 min and analyzed by an LC-MS/MS system.
Three male beagle dogs were used throughout the study in a cross-over design with washout period between treatments. The dogs were given the test substances as aqueous solution via intravenous routes with no shorter than 24 hr washout period between dosing. The animals were fasted overnight before the administration of the test substance and fed 4 hr post-dosing. During all the treatments, blood samples (1.5 ml) were withdrawn from the cephalic vein by venipuncture into heparinized tubes at 0, 5, 15, 30 min, 1, 1.5, 2, 2.5, 3, 4, 6, 9 and 12 hr after dosing. Plasma was obtained via centrifugation at 3,000 rpm for 10 min and analyzed by an LC-MS/MS system.
Four male beagle dogs were used throughout the study in a cross-over design with washout period between treatments. The dogs were given the test substances as ER tablet of Example 3C via oral routes with no shorter than 24 hr washout period between dosing. The animals were fasted overnight before the administration of the test substance and fed 4 hr post-dosing. During all the treatments, blood samples (1.5 ml) were withdrawn from the cephalic vein by venipuncture into heparinized tubes at 1, 2, 3, 4, 5, 6, 7, 8, 9, 10, 11 and 12 hr after dosing. Plasma was obtained via centrifugation at 3,000 rpm for 10 min and analyzed by an LC-MS/MS system.

[9] = compared to controls given saline only
[10] = IV aqueous solution, dose 4.2 mg, male beagle dogs

O=C(O)[C@H]1/C(=C/CO)O[C@@H]2CC(=O)N21 [clavulanate]
Clavulanate (%) ([1]; Freeze dry: sub-zero, 21 hr): 97%
degradation ([1]; drying in a fluid bed system, 1.5 hr): 13%
TH-positive (TH-IR) neurons within the SNpc [2]: significantly protected; also recorded: preservation
TH-positive (TH-IR) neurons within the SNpc ([2]; listed as Clavulanate): well preserved
protection of TH-positive SNpc neurons, gavage versus ip ([2]; following gavage treatment): greater protection
onset to seizure (Kainate animal model; [9]): longer onset to seizure
seizure activity (Kainate animal model; [9]): mild seizure activity
Survival rate (%) (Kainate animal model; kainate 20 mg/kg IP, clavulanate 10 μg/kg IP 1 hr before and 60 min after kainate): 100%
Seizure rate (Kainate animal model; seizure rating scale (Sperk et al., 1983), 60-120 min after kainate treatment): 0-1
fatality (Kainate animal model; within 24 hrs of kainate treatment): no fatality
pyramidal neurons positive to cresyl violet ([3]; CA3 stratum pyramidale, 7 days after kainate, compared to the normal group): 88.7%
morphology of neurons in CA3 ([3]; compared to animals treated with kainate-saline): normal morphology
neuroprotective effect on kainate induced hippocampal cell death (CA3 region) ([3]; kainate treated rats): strong neuroprotective effect; also recorded: significant neuroprotective effect

O=C(O)[C@H]1/C(=C/CO)O[C@@H]2CC(=O)N21 [clavulanic acid]
anxiolytic activity [4]: anxiolytic activity
neuroprotectant activity [5]: potent neuroprotectant activity
CNS activity and behavior [6]: alter CNS activity and behavior

O=C(O)[C@H]1/C(=C/CO)O[C@@H]2CC(=O)N21 [potassium clavulanate]
humidity above which deliquescence would eventually occur [7]: above 40 % relative humidity
Moisture Content (%) (g H2O/g dry solid) ([7]; 33% RH): 0.713%
Moisture Content (%) (g H2O/g wet solid) ([7]; 33% RH): 0.708%
Moisture Content (%) (g H2O/g dry solid) ([7]; 35% RH): 0.737%
Moisture Content (%) (g H2O/g wet solid) ([7]; 35% RH): 0.733%
Moisture Content (%) (g H2O/g dry solid) ([7]; 37% RH): 0.848%
Moisture Content (%) (g H2O/g wet solid) ([7]; 37% RH): 0.842%
Moisture Content (%) (g H2O/g dry solid) ([7]; 39% RH): 1.280%
Moisture Content (%) (g H2O/g wet solid) ([7]; 39% RH): 1.264%
Moisture Content (%) (g H2O/g dry solid) ([7]; 41% RH): 1.566%
Moisture Content (%) (g H2O/g wet solid) ([7]; 41% RH): 1.542%
Moisture Content (%) (g H2O/g dry solid) ([7]; 43% RH): 4.140%
Moisture Content (%) (g H2O/g wet solid) ([7]; 43% RH): 3.976%
Moisture Content (%) (g H2O/g dry solid) ([7]; 45% RH): 5.018%
Moisture Content (%) (g H2O/g wet solid) ([7]; 45% RH): 4.778%
Moisture Content (%) (g H2O/g dry solid) ([7]; 47% RH): 14.708%
Moisture Content (%) (g H2O/g wet solid) ([7]; 47% RH): 12.823%
rate of moisture absorption ([7]; dry potassium clavulanate exposed to about 50% relative humidity): approximately 1.44 % per hour
moisture content on a dry weight basis ([7]; exposed to about 35% or less of relative humidity for 96 hr): < 1%
degradation ([1]; storage at 30° C. for 69 hr (storage 1)): up to 45%
degradation ([1]; storage at 45° C. for 75 hr (storage 2)): ≤ 60%
AUC(0-t) [8, 10]: 684 ng·h/mL
MRT inf [8, 10]: 39 min
clearance [8, 10]: 96.7 mL/min
bioavailability ([8]; IV aqueous solution, dose 4.2 mg, male beagle dogs, read-out: F (bioavailability)): 100%
half-life ([8]; IV aqueous solution, dose 4.2 mg, male beagle dogs, read-out: t1/2 (converted)): 31.2 min
Vd ([8]; male, beagle, IV aqueous solution, dose 4.2 mg, male beagle dogs, read-out: Vd): 4.4 L
Vd ([8]; male, beagle, IV aqueous solution, dose 4.2 mg, male beagle dogs, read-out: Vss): 3.8 L
bioavailability ([8]; male, beagle, po, given orally, fasted animals, read-out: average bioavailability): 30 to 41%
half-life ([8]; male, beagle dogs, read-out: apparent terminal half-life (converted)): 30 min
